# Measurements as given in US11396517B1, “Exo-aza spiro inhibitors of menin-MLL interaction” (Janssen Pharmaceutica NV, priority 2017, dated 2022).
# Where two headings read alike, the source gives them in different places.
# Experiments:
# MOLM14 = assay: Proliferation assay B (spheroid assay) MOLM14; type: cell-based, human; conditions: MOLM14 cells, confluence at day 8, absolute IC50, read-out: (3b) Spheroid assay MOLM14 (IC50(μM)) Assay B
# Experimental: 3b) Proliferation Assay B
# The anti-proliferative effect of menin/MLL protein/protein interaction inhibitor test compounds was assessed in human leukemia cell lines. The cell lines MV-4-11 and MOLM14 harbor MILL translocations and express the MILL fusion proteins MLL-AF4 and MLL-AF9, respectively, as well as the wildtype protein from the second allele. […] K562 was used as a control cell line containing two MLL wildtype alleles in order to exclude compounds that display general cytotoxic effects.
# MV-4-11 and MOLM14 were cultured in RPMI-1640 (Sigma Aldrich) supplemented with 10% fetal bovine serum (HyClone), 2 mM L-glutamine (Sigma Aldrich) and 50 μg/ml gentamycin (Gibco). K562 were propagated in RPMI-1640 (Sigma Aldrich) supplemented with 20% fetal bovine serum (HyClone), 2 mM L-glutamine (Sigma Aldrich) and 50 μg/ml gentamycin (Gibco).
# In order to assess the anti-proliferative effects, 1,500 MV-4-11, 300 MOLM14 cells or 750 K562 cells were seeded in 200 μl media per well in 96-well round bottom, ultra-low attachment plates (Costar, catalogue number 7007). Cell seeding numbers were chosen based on growth curves to ensure linear growth throughout the experiment. Test compounds were added at different concentrations and the DMSO content was normalized to 0.3%. Cells were incubated for 8 d at 37° C. and 5% CO2. Spheroid like growth was measured in real-time by live-cell imaging (IncuCyteZOOM, Essenbio, 4× objective) acquiring images at day 8. Confluence (%) as a measure of spheroid size was determined using an integrated analysis tool.
# In order to determine the effect of the test compounds over time, the confluence in each well as a measure of spheroid size, was calculated. Confluence […] at the beginning of the experiment (t=0) was used as baseline for the calculation.
# Absolute IC50 values were calculated as percent change in confluence as follows:
# LC=Low Control: cells treated with 1 μM of the cytotoxic agent staurosporin
# HC=High Control: Mean confluence (%) (DMSO treated cells) % Effect=100−(100*(Sample−LC)/(HC−LC))
# To determine the IC50 a curve is fitted to the plot of % Effect vs Log 10 compound concentration using a sigmoidal fit with a variable slope and fixing the maximum to 100% and the minimum to 0%.
# menin = target: T1, menin (Homo sapiens, UniProt O00255, T541A); assay: Menin/MLL homogenous time-resolved fluorescence (HTRF) assay; type: binding
# T1 construct: Menin (a.a. 1-610-6×his tag)
# T1 sequence (O00255 with tags, fused parts or gaps T541A): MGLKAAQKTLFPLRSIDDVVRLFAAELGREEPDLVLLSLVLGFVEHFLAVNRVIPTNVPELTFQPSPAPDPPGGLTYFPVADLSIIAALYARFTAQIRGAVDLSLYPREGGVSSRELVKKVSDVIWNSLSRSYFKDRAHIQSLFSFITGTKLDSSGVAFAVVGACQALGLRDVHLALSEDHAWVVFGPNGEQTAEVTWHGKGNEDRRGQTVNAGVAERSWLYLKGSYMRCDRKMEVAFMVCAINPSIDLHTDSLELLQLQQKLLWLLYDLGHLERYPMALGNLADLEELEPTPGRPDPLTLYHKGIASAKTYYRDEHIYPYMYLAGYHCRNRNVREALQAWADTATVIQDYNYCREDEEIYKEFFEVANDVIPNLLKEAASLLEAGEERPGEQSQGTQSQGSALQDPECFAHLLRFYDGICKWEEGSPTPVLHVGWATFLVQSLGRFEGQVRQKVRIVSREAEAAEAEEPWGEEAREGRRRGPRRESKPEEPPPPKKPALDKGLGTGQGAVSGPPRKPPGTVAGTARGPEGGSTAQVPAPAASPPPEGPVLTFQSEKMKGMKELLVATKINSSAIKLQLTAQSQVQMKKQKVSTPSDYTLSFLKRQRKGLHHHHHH
# Outline: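 Terbium-labeled menin (aa 1-610, His-tagged; […]) preincubated 5 min with compound, then 75 nM FITC-MBM1 peptide for 15 min, ambient, Tris pH 7.5, 0.5% DMSO. HTRF 520/490 ratio; 11-point 3-fold titration; IC50 from % inhibition fit.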
# [1] = location 2, read-out: (2) location 2 Menin HTRF assay (IC50 (nM))
"IC50 (MOLM14; Homo sapiens, MOLM-14, 192 h) [µM]",IC50 (menin; [1]) [nM],IC50 (MOLM14) [µM],"IC50 (menin; location 1, read-out: (2) location 1 Menin HTRF assay (IC50 (nM))) [nM]",SMILES
1.02,2.2,–,–,"CNC(=O)c1ccc(NC2CC3(CCN(c4ncnc5sc(CC(F)(F)F)cc45)C3)C2)cc1F (single isomer, unassigned) [Compound 205]"
> 3.75,26.8,–,–,CNC(=O)c1ccc(NC2CC3(CCN(c4ncnc5sc(CC(F)(F)F)cc45)C3)C2)c(F)c1 (stereo not shown) [Compound 66]
0.56,3.5,–,–,FC(F)(F)Cc1cc2c(N3CC[C@@]4(CC[C@@H](Nc5ccc(-c6cc[nH]n6)cc5)C4)C3)ncnc2s1 (stereo in doubt) [Compound 139]
3.18,9.1,–,–,O=C1OCCN1Cc1ccc(NC2CC3(CCN(c4ncnc5sc(CC(F)(F)F)cc45)C3)C2)cc1 (mixture of isomers) [Compound 347]
–,2.9,2.61,–,"CS(=O)(=O)NCc1ccc(NC2CC3(CCN(c4ncnc5sc(CC(F)(F)F)cc45)C3)C2)cc1 (single isomer, unassigned) [Compound 368]"
–,8.7,0.95,–,"CN1CCC(c2cc(NC3CC4(CCN(c5ncnc6sc(CC(F)(F)F)cc56)C4)C3)ccc2C#N)CC1 (single isomer, unassigned) [Compound 80]"
> 3.75,4.8,–,–,CS(=O)(=O)c1ccc(NC2CC3(CCN(c4ncnc5sc(CC(F)(F)F)cc45)C3)C2)cc1 (mixture of isomers) [Compound 342]
–,5.3,3.5,–,"N#CCn1c(=O)[nH]c2cc(NC3CC4(CCN(c5ncnc6sc(CC(F)(F)F)cc56)C4)C3)ccc21 (single isomer, unassigned) [Compound 358]"
> 3.75,146,–,–,CNc1nc(N2CCC3(CC(Nc4ccc5c(c4)oc(=O)n5CCN4CCN(S(C)(=O)=O)CC4)C3)C2)c2cc(CC(F)(F)F)sc2n1 (mixture of isomers) [Compound 250]
3.39,17.8,–,–,CCS(=O)(=O)N[C@H]1CC[C@H](CNC2CC3(CCN(c4ncnc5sc(CC(F)(F)F)cc45)C3)C2)CC1 (stereo partly shown) [Compound 106]
3.38,3.4,–,–,"CC(=O)Nc1ccc(NC2CC3(CCN(c4ncnc5sc(CC(F)(F)F)cc45)C3)C2)cc1 (single isomer, unassigned) [Compound 331]"
–,16.4,> 3.75,–,"COC[C@H]1COCCN1C(=O)c1ccc(NC2CC3(CCN(c4ncnc5sc(CC(F)(F)F)cc45)C3)C2)cc1 (single isomer, unassigned) [Compound 408]"
2.33,6.8,–,–,O=C1OCCN1c1ccc(NC2CC3(CCN(c4ncnc5sc(CC(F)(F)F)cc45)C3)C2)cc1 (mixture of isomers) [Compound 345]
> 3.75,9.4,–,–,CNC(=O)c1ccc(NC2CC3(CCN(c4ncnc5sc(CC(F)(F)F)cc45)C3)C2)cc1Cl (mixture of isomers) [Compound 214]
2.41,5.1,–,–,CS(=O)(=O)N1CC(CC(C#N)c2ccc(NC3CC4(CCN(c5ncnc6sc(CC(F)(F)F)cc56)C4)C3)cc2)C1 (stereo not shown) [Compound 339]
1,13.1,–,–,CC(CN1CCN(S(C)(=O)=O)CC1)NC(=O)c1ccc(NC2CC3(CCN(c4ncnc5sc(CC(F)(F)F)cc45)C3)C2)cc1 (mixture of isomers) [Compound 192]
> 3.75,22.1,–,–,O=C1NCCN1Cc1ccc(NC2CC3(CCN(c4ncnc5sc(CC(F)(F)F)cc45)C3)C2)cc1 (stereo not shown) [Compound 107]

"IC50 (MOLM14; Homo sapiens, MOLM-14, 192 h) [µM]",IC50 (menin; [1]) [nM],IC50 (MOLM14) [µM],"IC50 (menin; location 1, read-out: (2) location 1 Menin HTRF assay (IC50 (nM))) [nM]",SMILES
> 3.75,1580,–,–,"O=C(c1ccc(NC2CC3(CCN(c4ncnc5sc(CC(F)(F)F)cc45)C3)C2)cc1)N1CCNCC1 (single isomer, unassigned) [Compound 187]"
2.4,2.6,–,–,"O=S(=O)(c1ccc(NC2CC3(CCN(c4ncnc5sc(CC(F)(F)F)cc45)C3)C2)cc1)N1CCOCC1 (single isomer, unassigned) [Compound 219]"
> 3.75,3380,–,–,"O=C(c1ccc(NC2CC3(CCN(c4ncnc5sc(CC(F)(F)F)cc45)C3)C2)nn1)N1CCOCC1 (single isomer, unassigned) [Compound 420]"
> 3.75,3.1,–,–,"N#CCn1c(=O)[nH]c2cc(NC3CC4(CCN(c5ncnc6sc(CC(F)(F)F)cc56)C4)C3)ccc21 (single isomer, unassigned) [Compound 357]"
> 3.75,749,–,–,"CNC(=O)c1cnc(NC2CC3(CCN(c4ncnc5sc(CC(F)(F)F)cc45)C3)C2)cn1 (single isomer, unassigned) [Compound 418]"
–,84.2,> 3.75,–,"CNC(=O)c1cc(F)c(NC2CC3(CCN(c4ncnc5sc(CC(F)(F)F)cc45)C3)C2)c(F)c1 (single isomer, unassigned) [Compound 228]"
–,208,> 3.75,–,"O=C(c1ccc(NC2CC3(CCN(c4ncnc5sc(CC(F)(F)F)cc45)C3)C2)nn1)N1CCOCC1 (single isomer, unassigned) [Compound 421]"
> 3.75,10.6,–,–,CNC(=O)c1cnc(NC2CC3(CCN(c4ncnc5sc(CC(F)(F)F)cc45)C3)C2)nc1 (mixture of isomers) [Compound 257]
2.47,7.1,–,–,CS(=O)(=O)N1CCC(C#N)(c2ccc(NC3CC4(CCN(c5ncnc6sc(CC(F)(F)F)cc56)C4)C3)cc2)CC1 (mixture of isomers) [Compound 340]
> 3.75,1100,–,–,"CC1CN(C(=O)c2ccc(NC3CC4(CCN(c5ncnc6sc(CC(F)(F)F)cc56)C4)C3)cc2)CC(C)O1 (single isomer, unassigned) [Compound 405]"
> 3.75,91.8,–,–,"COCCNC(=O)c1ccc(NC2CC3(CCN(c4ncnc5sc(CC(F)(F)F)cc45)C3)C2)cc1 (single isomer, unassigned) [Compound 86]"
1.29,1.6,–,–,CNC(=O)c1ccc(N[C@@H]2CC[C@@]3(CCN(c4ncnc5sc(CC(F)(F)F)cc45)C3)C2)cc1 (stereo in doubt) [Compound 134]
2.1,46,–,44.1,"CN(C(=O)c1ccc(NC2CC3(CCN(c4ncnc5sc(CC(F)(F)F)cc45)C3)C2)cc1)S(C)(=O)=O (single isomer, unassigned) [Compound 363]"
> 3.75,101,–,–,"O=C(c1ccc(NC2CC3(CCN(c4ncnc5sc(CC(F)(F)F)cc45)C3)C2)cc1)N1CCS(=O)(=O)CC1 (single isomer, unassigned) [Compound 411]"
> 3.75,5.7,–,–,CNC(=O)c1ccc(N[C@H]2CC[C@]3(CCN(c4ncnc5sc(CC(F)(F)F)cc45)C3)C2)cc1 (stereo in doubt) [Compound 137]
–,489,> 3.75,–,CNC(=O)c1ccc(NC2CC3(CCN(c4ncnc5sc(CC(F)(F)F)cc45)C3)C2)cc1C (stereo not shown) [Compound 237]
–,–,2.94,–,"N#Cc1ccc(NC2CC3(CCN(c4ncnc5sc(CC(F)(F)F)cc45)C3)C2)nc1 (single isomer, unassigned) [Compound 174]"

SMILES,"IC50 (MOLM14; Homo sapiens, MOLM-14, 192 h) [µM]",IC50 (menin; [1]) [nM],IC50 (MOLM14) [µM],"IC50 (menin; location 1, read-out: (2) location 1 Menin HTRF assay (IC50 (nM))) [nM]"
"N#CCc1ccc(NC2CC3(CCN(c4nc(N)nc5sc(CC(F)(F)F)cc45)C3)C2)cc1 (single isomer, unassigned) [Compound 379]",> 3.75,1.4,–,–
